Source: ChEMBL document CHEMBL1155232, “Aminoimidazoles as potent and selective human beta-secretase (BACE1) inhibitors” (J Med Chem, 2009)
Active and inactive are the calls of the source. The calls are words filed in the database; no cut-off is given here.

Columns and labels:
Beta-secretase 1 [1] = target: T1, Beta-secretase 1 (Homo sapiens, UniProt P56817); test: Inhibition of human BACE1 by FRET
Cathepsin D [2] = target: T2, Cathepsin D (Homo sapiens, UniProt P07339); test: Inhibition of human cathepsin D by FRET
Beta-secretase 1 [3] = target: T1, Beta-secretase 1; test: Inhibition of BACE1 expressed in CHO cells co-expressing human wild type APP protein by ELISA; format: cell-based
Renin (Homo sapiens) = target: T3, Renin (Homo sapiens) (UniProt P00797); test: Inhibition of human recombinant renin at 50 uM by FRET
T3 sequence (whole entry): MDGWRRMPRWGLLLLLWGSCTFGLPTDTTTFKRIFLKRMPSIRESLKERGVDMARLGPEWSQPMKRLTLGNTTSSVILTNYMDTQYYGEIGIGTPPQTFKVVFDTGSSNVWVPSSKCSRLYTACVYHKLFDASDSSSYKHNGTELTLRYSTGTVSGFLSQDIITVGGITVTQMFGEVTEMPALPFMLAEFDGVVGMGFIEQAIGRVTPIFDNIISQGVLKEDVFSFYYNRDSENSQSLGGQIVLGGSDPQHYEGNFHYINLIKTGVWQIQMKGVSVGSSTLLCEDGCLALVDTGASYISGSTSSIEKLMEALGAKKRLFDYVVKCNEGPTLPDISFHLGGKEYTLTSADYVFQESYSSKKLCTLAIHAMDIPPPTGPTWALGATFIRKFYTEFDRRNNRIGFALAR

[4] = Inhibition of pepsin at 100 uM by FRET
Beta-secretase 2 = target: T4, Beta-secretase 2 (Homo sapiens, UniProt Q9Y5Z0)
T4 sequence (Q9Y5Z0 whole entry): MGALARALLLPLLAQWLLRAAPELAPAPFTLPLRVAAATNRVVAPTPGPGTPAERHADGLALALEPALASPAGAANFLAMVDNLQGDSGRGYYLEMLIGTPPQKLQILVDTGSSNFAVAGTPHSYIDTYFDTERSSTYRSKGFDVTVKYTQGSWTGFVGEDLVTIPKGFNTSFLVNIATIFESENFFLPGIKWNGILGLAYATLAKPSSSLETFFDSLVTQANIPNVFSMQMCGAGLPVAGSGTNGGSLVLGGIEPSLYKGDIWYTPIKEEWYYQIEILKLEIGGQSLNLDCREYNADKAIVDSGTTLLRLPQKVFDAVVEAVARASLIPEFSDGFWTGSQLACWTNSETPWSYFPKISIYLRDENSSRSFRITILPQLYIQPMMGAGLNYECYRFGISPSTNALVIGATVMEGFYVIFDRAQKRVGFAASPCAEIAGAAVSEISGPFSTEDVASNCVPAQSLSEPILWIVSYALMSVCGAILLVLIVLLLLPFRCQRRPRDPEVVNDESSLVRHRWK

[5] = target: T5, Beta-secretase 2 (Homo sapiens) (UniProt Q9Y5Z0); test: Inhibition of human BACE2 at 100 uM by FRET
T5 sequence (whole entry): T4 sequence (Q9Y5Z0 whole entry)

Mus musculus [6] = test: Reduction in Abeta-40 level in Tg2576 mouse plasma at 30 mg/kg, po administered as single dose after 6 hrs; format: functional; set-up: scale not given: the % may be the effect or the level left
Mus musculus [7] = test: Reduction in Abeta-40 level in Tg2576 mouse brain at 30 mg/kg, po administered as single dose after 6 hrs; format: functional, organism-based; set-up: dose 30 mg/kg
Renin = target: T6, Renin (Homo sapiens, UniProt P00797); test: Inhibition of human recombinant renin by FRET
T6 sequence (P00797 whole entry): T3 sequence (whole entry)

[8] = target: T5, Beta-secretase 2 (Homo sapiens); test: Inhibition of human BACE2 at […] by FRET
Cathepsin D [9] = target: T2, Cathepsin D; test: Inhibition of human cathepsin D at 100 uM by FRET
Cathepsin D [10] = target: T2, Cathepsin D; test: Inhibition of human cathepsin D at 200 uM by FRET

T1 sequence (P56817 whole entry): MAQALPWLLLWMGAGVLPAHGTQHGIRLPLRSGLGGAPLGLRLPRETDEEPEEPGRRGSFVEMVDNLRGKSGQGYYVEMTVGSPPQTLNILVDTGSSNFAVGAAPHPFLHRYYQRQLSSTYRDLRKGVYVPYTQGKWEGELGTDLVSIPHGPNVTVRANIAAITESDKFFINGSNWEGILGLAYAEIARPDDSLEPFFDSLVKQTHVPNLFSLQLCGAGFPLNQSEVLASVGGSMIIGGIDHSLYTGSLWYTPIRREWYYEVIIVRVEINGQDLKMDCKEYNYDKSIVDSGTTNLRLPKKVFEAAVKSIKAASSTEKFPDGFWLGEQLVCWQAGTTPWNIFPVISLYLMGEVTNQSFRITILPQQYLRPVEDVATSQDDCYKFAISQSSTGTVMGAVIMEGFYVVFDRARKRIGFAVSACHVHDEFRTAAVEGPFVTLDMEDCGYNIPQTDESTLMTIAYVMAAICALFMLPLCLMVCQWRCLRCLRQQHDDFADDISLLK
T2 sequence (P07339 65-162 limits assumed): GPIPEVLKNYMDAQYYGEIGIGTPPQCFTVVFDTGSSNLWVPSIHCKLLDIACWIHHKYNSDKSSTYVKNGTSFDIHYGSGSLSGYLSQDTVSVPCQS
T2 sequence (P07339 169-412 limits assumed): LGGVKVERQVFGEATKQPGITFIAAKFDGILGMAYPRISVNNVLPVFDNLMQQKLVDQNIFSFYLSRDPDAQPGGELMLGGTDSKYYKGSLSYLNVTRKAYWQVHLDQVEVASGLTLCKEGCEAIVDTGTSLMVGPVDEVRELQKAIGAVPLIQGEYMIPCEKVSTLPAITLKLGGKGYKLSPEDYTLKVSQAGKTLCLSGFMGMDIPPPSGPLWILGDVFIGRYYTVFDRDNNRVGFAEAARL

Molecule `NC1=NC(c2ccc(OC(F)(F)F)cc2)(c2cccc(-c3cccnc3F)c2)C2=NCCCCN12` (stereo unspecified) has an IC50 (Beta-secretase 1 [1]) of 80 nM, an IC50 (Cathepsin D [2]) of 10.8 µM and an EC50 (Beta-secretase 1 [3]) of 300 nM.

`NC1=NC(c2cccc(-c3cccnc3F)c2)(c2ccc3c(c2)OCO3)C2=NCCCN12` (stereo unspecified) showed an inhibition (Renin (Homo sapiens)) of 24%, an IC50 (Cathepsin D [2]) of 15.4 µM and an inhibition [4] of 18%.

For `NC1=NC(c2ccc(OC(F)(F)F)cc2)(c2cccc(-c3cccnc3F)c2)/C2=N/CCCCCN12` (stereo unspecified), the IC50 (Cathepsin D [2]) was 11.3 µM and the IC50 (Beta-secretase 2) was 10.8 µM.

Work on `CC(C)(C)c1cccc(C2(c3ccccc3)N=C(N)N3CCCN=C32)c1` (stereo unspecified) yielded an inhibition [5] of 21%, an IC50 (Beta-secretase 1 [1]) of 30200 nM and an IC50 (Cathepsin D [2]) of 150 µM. It also gave an EC50 (Beta-secretase 1 [3]) of 3000 nM.

`NC1=NC(c2ccc(OC(F)(F)F)cc2)(c2cccc(CCC3CC3)c2)C2=NCCCN12` (stereo unspecified) showed an IC50 (Cathepsin D [2]) of 16.4 µM, an EC50 (Beta-secretase 1 [3]) of 950 nM and an IC50 (Beta-secretase 2) of 3.78 µM.

Work on `CC1(C)CN2C(N)=NC(c3ccc(OC(F)(F)F)cc3)(c3cccc(-c4cccnc4F)c3)C2=N1` (stereo unspecified) yielded an IC50 (Beta-secretase 1 [1]) of 190 nM, an IC50 (Cathepsin D [2]) of 33 µM and an EC50 (Beta-secretase 1 [3]) of 1500 nM. The IC50 (Beta-secretase 2) was 17.3 µM.

For `COc1ccc(Cc2cccc(C3(c4ccccc4)N=C(N)N4CCCN=C43)c2)cc1` (stereo unspecified), the IC50 (Cathepsin D [2]) was 24.9 µM, the EC50 (Beta-secretase 1 [3]) was 5100 nM and the IC50 (Beta-secretase 2) was 22.4 µM.

For `NC1=NC(c2cccc(-c3cccnc3F)c2)(c2ccc3c(c2)OCCO3)C2=NCCCN12` (stereo unspecified), the IC50 (Cathepsin D [2]) was 9.6 µM.

In the case of `NC1=N[C@](c2ccc(OC(F)(F)F)cc2)(c2cccc(-c3cccnc3F)c2)C2=NCCCN12`, the Activity (Mus musculus [6]) is reported as 71%, the Activity (Mus musculus [7]) is reported as “inactive” and the IC50 (Cathepsin D [2]) is reported as 6.9 µM. It also gave an inhibition [4] of 13%, an IC50 (Renin) of 20.8 µM and an IC50 (Beta-secretase 2) of 3.6 µM.

`NC1=NC(c2cccc(-c3cccnc3F)c2)(c2ccc3c(c2)OC(F)(F)O3)C2=NCCCN12` (stereo unspecified) showed an IC50 (Cathepsin D [2]) of 95.3 µM.

With `NC1=NC(c2ccc(OC(F)(F)F)cc2)(c2cccc(Br)c2)C2=NCCCN12` (stereo unspecified) the IC50 (Beta-secretase 1 [1]) was 2600 nM, the IC50 (Cathepsin D [2]) was 47.4 µM and the EC50 (Beta-secretase 1 [3]) was 1600 nM. For the same molecule, the inhibition [8] was 39%.

With `NC1=NC(c2ccccc2)(c2cccc(Cc3ccccc3)c2)C2=NCCCN12` (stereo unspecified) the IC50 (Cathepsin D [2]) was 52.5 µM, the EC50 (Beta-secretase 1 [3]) was 5100 nM and the IC50 (Beta-secretase 2) was 10.9 µM.

`CCOc1ccc(C2(c3cccc(-c4cccnc4F)c3)N=C(N)N3CCCN=C32)cc1OCC` (stereo unspecified) gave an inhibition (Renin (Homo sapiens)) of 14%, an IC50 (Beta-secretase 1 [1]) of 80 nM and an IC50 (Cathepsin D [2]) of 63.4 µM. For the same molecule, the inhibition [4] was 11%.

With `NC1=NC(c2ccccc2)(c2cccc(Cc3ccc(F)cc3)c2)C2=NCCCN12` (stereo unspecified) the inhibition (Renin (Homo sapiens)) was 15%, the IC50 (Cathepsin D [2]) was 9.2 µM and the EC50 (Beta-secretase 1 [3]) was 4600 nM. The inhibition [4] was 6% and the IC50 (Beta-secretase 2) was 7 µM.

`COc1ccc(C2(c3cccc(-c4cccnc4F)c3)N=C(N)N3CCCN=C32)cc1` (stereo unspecified) gave an IC50 (Beta-secretase 1 [1]) of 70 nM, an IC50 (Cathepsin D [2]) of 16.5 µM and an EC50 (Beta-secretase 1 [3]) of 1630 nM.

`CCCc1cccc(C2(c3ccc(OC(F)(F)F)cc3)N=C(N)N3CCCN=C32)c1` (stereo unspecified) showed an IC50 (Cathepsin D [2]) of 93.7 µM and an EC50 (Beta-secretase 1 [3]) of 2100 nM.

`NC1=NC(c2ccc(OC(F)(F)F)cc2)(c2cccc(-c3cccnc3F)c2)C2=NCCN12` (stereo unspecified) gave an IC50 (Cathepsin D [2]) of 10.7 µM.

Molecule `NC1=NC(c2ccc(OC(F)(F)F)cc2)(c2cccc(-c3cccnc3F)c2)C2=NCCCN12` (racemic) has an IC50 (Cathepsin D [2]) of 18.1 µM.

`COc1cccc(C2(c3ccccc3)N=C(N)N3CCCN=C32)c1` (stereo unspecified) gave an IC50 (Beta-secretase 1 [1]) of 20300 nM, an EC50 (Beta-secretase 1 [3]) of 20900 nM and an inhibition (Cathepsin D [9]) of 22%. It also gave an IC50 (Beta-secretase 2) of 24.4 µM.

Work on `NC1=N[C@](c2ccc(OC(F)(F)F)cc2)(c2cccc(-c3cncnc3)c2)C2=NCCCN12` yielded an inhibition (Renin (Homo sapiens)) of 36%, an IC50 (Cathepsin D [2]) of 36.2 µM and an inhibition [4] of 12%. The IC50 (Beta-secretase 2) was 10.7 µM.

With `NC1=N[C@@](c2ccc(OC(F)(F)F)cc2)(c2cccc(-c3cccnc3F)c2)C2=NCCCN12` the IC50 (Cathepsin D [2]) was 56.9 µM.

Molecule `NC1=N[C@@](c2ccc(OC(F)(F)F)cc2)(c2cccc(-c3cncnc3)c2)C2=NCCCN12` has an inhibition (Cathepsin D [9]) of 29%.

In the case of `NC1=NC(c2ccc(OC(F)(F)F)cc2)(c2cccc(-c3cccnc3F)c2)C2=NOCCN12` (stereo unspecified), the IC50 (Cathepsin D [2]) is reported as 2.4 µM, the EC50 (Beta-secretase 1 [3]) is reported as 200 nM and the inhibition [4] is reported as 12%. For the same molecule, the IC50 (Renin) was 2.04 µM.

In the case of `NC1=NC(c2ccccc2)(c2ccccc2)C2=NCCCN12`, the inhibition (Cathepsin D [10]) is reported as 16%.

Molecule `COc1ccc(C2(c3cccc(-c4cncnc4)c3)N=C(N)N3CCCN=C32)cc1` (stereo unspecified) has an IC50 (Cathepsin D [2]) of 69.5 µM and an IC50 (Beta-secretase 2) of 16.2 µM.

For `NC1=NC(c2ccc(OC(F)(F)F)cc2)(c2cccc(-c3cncnc3)c2)C2=NCCCN12` (stereo unspecified), the IC50 (Cathepsin D [2]) was 78.7 µM and the IC50 (Beta-secretase 2) was 16.7 µM.

In the case of `NC1=NC(c2ccccc2)(c2cccc(C(F)(F)F)c2)C2=NCCCN12` (stereo unspecified), the IC50 (Beta-secretase 1 [1]) is reported as 21900 nM, the EC50 (Beta-secretase 1 [3]) is reported as 5100 nM and the inhibition (Cathepsin D [9]) is reported as 28%. The IC50 (Beta-secretase 2) was 30.1 µM.
